Experiments:
Assay in all cases: ATP level assay (CellTiter-Glo), percent of control
Assay type in all cases: cell-based
[1] = test system: T47D (breast cancer); settings: two hour incubation; for activity at 100 µM: Homo sapiens, T47D, 2 h, compound alone, control DMSO, read-out: POC (percent of control) T47D
From the text: (§1) In the present method, the method of using the available assays has been modified to measure the short-term effect of compounds of interest on ATP levels in the cells. […] In the modified method, the control and test cells are initially treated with the metabolic inhibitor for a period of about thirty minutes to about four hours. Typically, the treatment of the cells with the metabolic inhibitor is for one hour prior to adding the compound to be screened for anti-cancer properties. However, simultaneous treatment with the metabolic inhibitor and the compound being screened should provide satisfactory results. […] ATP synthesis in cells occurs over multiple biochemical pathways. These pathways are very responsive to metabolic inhibitors and/or changes in available nutrients. By incorporating a metabolic inhibitor which is known to impact certain pathways, the disclosed method provides for measurement of a compound's direct effects on the remaining metabolic pathways available for ATP synthesis in the cell.
(§2) Following treatment of the control and test cells with the metabolic inhibitor, the method calls for addition of the compound to be screened for anti-cancer properties to the cells. Following addition of the compound of interest, the assay is allowed to continue for about one hour to about four hours or depending on the luminescing agent up to eighteen hours. However, approximately 60 minutes will be sufficient to determine the ATP inhibiting effect of the compound to be screened on the cells. Following completion of the selected time period, the ATP level within the cell is determined. ATP levels can be determined by luminescence according to standard measuring procedures, i.e. the luminescence level of the assay from the living cells treated with the two component composition is compared to the luminescence level of the assay from the living cells without the two component composition, i.e., the control experiment. Thus, the ATP levels are determined without killing the cells during the incubation of the cells in the presence of the compound of interest. As a result, the measured reduction in ATP level corresponds directly to the inhibition of the metabolic pathways uninhibited by the metabolic blocker.
(§3) A wide variety of ATP luminescing detection reagents are available commercially. So long as the reagent produces a luminescence in the presence of ATP, the reagent will be suitable for use in the present method. Suitable reagents include but are not limited to any ATP dependent luciferase such as but not limited to firefly luciferase, other modified luciferase based reagents, i.e. luciferase derivatives. According to the rapid method for determining the anti-cancer activity of a compound, a sample of living cells is distributed across a number of testing wells. Typically, 96-well plates are used; however, the number of wells is not critical to the current method. When using a 96-well plate the number of living cells will commonly be about 20,000. The sample wells contain a cell growth medium to promote cell health and growth and an additive to prevent bacterial contamination of the wells. One common example of the cell growth medium is DMEM with 10% FBS as described above. One example of the additive to prevent bacterial contamination is a solution of penicillin G and streptomycin referred to commonly as Pen-Strep. The Pen-Strep solution typically contains 5000 units of penicillin G and 5000 micrograms of streptomycin. Thus, the rapid determination of anti-cancer compounds can be carried out using the following method. • The desired number of cells are distributed in a 96-well plate containing 100 μL DMEM plus 10% FBS with optional Pen-Strep. • After 24 hours, cells are treated with the compound of interest or a 5% solution of dimethyl sulfoxide (DMSO) in water as a control. • The time period for exposure to the compound of interest and the DMSO control will vary depending on the luminescing detection reagent. […]

[2] = test system: HeLa (cervical cancer); settings: two hour incubation; for activity at 100 µM: Homo sapiens, HeLa, 2 h, compound alone, control DMSO, read-out: POC (percent of control) HeLa
From the text: as §1, §2, §3

[3] = test system: SkBr3 (breast cancer); settings: two hour incubation; for activity at 100 µM: Homo sapiens, SK-BR-3, 2 h, compound alone, control DMSO, read-out: POC (percent of control) SkBr3
From the text: as §1, §2, §3

[4] = test system: MCF7 (breast cancer); settings: two hour incubation; for activity at 100 µM: Homo sapiens, MCF7, 2 h, compound alone, control DMSO, read-out: POC (percent of control) MCF7
From the text: as §1, §2, §3

[5] = test system: H293 (kidney cancer); settings: two hour incubation; for activity at 100 µM: 2 h, compound alone, control DMSO, read-out: POC (percent of control) H293
From the text: as §1, §2, §3

[6] = test system: NCI-H196 (lung cancer); settings: two hour incubation; for activity at 100 µM: NCI-H196, 2 h, compound alone, control DMSO, read-out: POC (percent of control) NCI-H196
From the text: as §1, §2, §3

[7] = test system: MDA-MB (breast cancer); settings: two hour incubation; for activity at 100 µM: 2 h, compound alone, control DMSO, read-out: POC (percent of control) MDA-MB
From the text: as §1, §2, §3

[8] = test system: PC3 (prostate cancer); settings: two hour incubation; for activity at 100 µM: 2 h, compound alone, control DMSO, read-out: POC (percent of control) PC3
From the text: as §1, §2, §3

[9] = test system: BxPC3 (pancreatic cancer); settings: two hour incubation; for activity at 100 µM: Homo sapiens, BXPC-3, 2 h, compound alone, control DMSO, read-out: POC (percent of control) BxPC3
From the text: as §1, §2, §3

[10] = test system: MCF10A (non-cancerous breast); settings: two hour incubation; for activity at 100 µM: Homo sapiens, MCF-10A, 2 h, compound alone, control DMSO, read-out: POC (percent of control) MCF10A
From the text: as §1, §2, §3

[11] = test system: HDF (normal cells); settings: two hour incubation; for activity at 100 µM: 2 h, compound alone, control DMSO, read-out: POC (percent of control) HDF
From the text: as §1, §2, §3

[12] = compound 100 uM + 2DG (about 10-20 mM)
[13] = compound 100 uM + rotenone (approximately 1.25 μM)

## COc1ncccc1CNS(=O)(=O)c1ccc(C)cc1 [Compound 12, N-[(2-methoxypyridin-3-yl)methyl]-4-methylbenzenesulfonamide]
[1]
  activity at 100 µM: 59.8%
[1]; [12]
  POC (percent of control) T47D: 58.1% of control
[1]; [13]
  POC (percent of control) T47D: 95.2% of control
[2]
  activity at 100 µM: 98%
[2]; [12]
  POC (percent of control) HeLa: 78.5% of control
[2]; [13]
  POC (percent of control) HeLa: 87.6% of control
[3]
  activity at 100 µM: 91.6%
[3]; [12]
  POC (percent of control) SkBr3: 73.5% of control
[3]; [13]
  POC (percent of control) SkBr3: 85.1% of control
[4]
  activity at 100 µM: 97.3%
[4]; [12]
  POC (percent of control) MCF7: 90.8% of control
[4]; [13]
  POC (percent of control) MCF7: 92.1% of control
[5]
  activity at 100 µM: 94.4%
[5]; [12]
  POC (percent of control) H293: 85% of control
[5]; [13]
  POC (percent of control) H293: 74.9% of control
[6]
  activity at 100 µM: 83.5%
[6]; [12]
  POC (percent of control) NCI-H196: 117% of control
[6]; [13]
  POC (percent of control) NCI-H196: 81.8% of control
[7]
  activity at 100 µM: 87.2%
[7]; [12]
  POC (percent of control) MDA-MB: 83.9% of control
[7]; [13]
  POC (percent of control) MDA-MB: 105.7% of control
[8]
  activity at 100 µM: 82.1%
[8]; [12]
  POC (percent of control) PC3: 89.9% of control
[8]; [13]
  POC (percent of control) PC3: 80.3% of control
[9]
  activity at 100 µM: 79.8%
[9]; [12]
  POC (percent of control) BxPC3: 57% of control
[9]; [13]
  POC (percent of control) BxPC3: 61% of control
[10]
  activity at 100 µM: 98.6%
[10]; [12]
  POC (percent of control) MCF10A: 88.1% of control
[10]; [13]
  POC (percent of control) MCF10A: 86.1% of control
[11]
  activity at 100 µM: 77.8%
[11]; [12]
  POC (percent of control) HDF: 90.9% of control
[11]; [13]
  POC (percent of control) HDF: 70.4% of control

## Cn1cc(CNS(=O)(=O)c2ccc(Cl)cc2)cn1 [Compound 11, 4-chloro-N-[(1-methyl-1H-pyrazol-4-yl)methyl]benzenesulfonamide]
[1]
  activity at 100 µM: 59.3%
[1]; [12]
  POC (percent of control) T47D: 90.4% of control
[1]; [13]
  POC (percent of control) T47D: 99.6% of control
[2]
  activity at 100 µM: 103%
[2]; [12]
  POC (percent of control) HeLa: 117.6% of control
[2]; [13]
  POC (percent of control) HeLa: 96.4% of control
[3]
  activity at 100 µM: 101%
[3]; [12]
  POC (percent of control) SkBr3: 99.7% of control
[3]; [13]
  POC (percent of control) SkBr3: 95.3% of control
[4]
  activity at 100 µM: 118%
[4]; [12]
  POC (percent of control) MCF7: 98.4% of control
[4]; [13]
  POC (percent of control) MCF7: 94.6% of control
[5]
  activity at 100 µM: 92.8%
[5]; [12]
  POC (percent of control) H293: 87.4% of control
[5]; [13]
  POC (percent of control) H293: 88.3% of control
[6]
  activity at 100 µM: 95.2%
[6]; [12]
  POC (percent of control) NCI-H196: 114.7% of control
[6]; [13]
  POC (percent of control) NCI-H196: 88.9% of control
[7]
  activity at 100 µM: 95.3%
[7]; [12]
  POC (percent of control) MDA-MB: 82.4% of control
[7]; [13]
  POC (percent of control) MDA-MB: 97.9% of control
[8]
  activity at 100 µM: 113%
[8]; [12]
  POC (percent of control) PC3: 94.6% of control
[8]; [13]
  POC (percent of control) PC3: 96.1% of control
[9]
  activity at 100 µM: 99.2%
[9]; [12]
  POC (percent of control) BxPC3: 83.8% of control
[9]; [13]
  POC (percent of control) BxPC3: 78% of control
[10]
  activity at 100 µM: 95.4%
[10]; [12]
  POC (percent of control) MCF10A: 95.8% of control
[10]; [13]
  POC (percent of control) MCF10A: 93.7% of control
[11]
  activity at 100 µM: 77.4%
[11]; [12]
  POC (percent of control) HDF: 101.3% of control
[11]; [13]
  POC (percent of control) HDF: 89.8% of control

## Cc1ccc(S(=O)(=O)NCc2coc(C)n2)cc1 [Compound 21, 4-methyl-N-[(2-methyl-1,3-oxazol-4-yl)methyl]benzenesulfonamide]
[1]
  activity at 100 µM: 88.7%
[1]; [12]
  POC (percent of control) T47D: 99.4% of control
[1]; [13]
  POC (percent of control) T47D: 86.4% of control
[2]
  activity at 100 µM: 101%
[2]; [12]
  POC (percent of control) HeLa: 105.8% of control
[2]; [13]
  POC (percent of control) HeLa: 109.4% of control
[3]
  activity at 100 µM: 102%
[3]; [12]
  POC (percent of control) SkBr3: 108.5% of control
[3]; [13]
  POC (percent of control) SkBr3: 106.9% of control
[4]
  activity at 100 µM: 189%
[4]; [12]
  POC (percent of control) MCF7: 121.1% of control
[4]; [13]
  POC (percent of control) MCF7: 111% of control
[5]
  activity at 100 µM: 115%
[5]; [12]
  POC (percent of control) H293: 87.8% of control
[5]; [13]
  POC (percent of control) H293: 87% of control
[6]
  activity at 100 µM: 108%
[6]; [12]
  POC (percent of control) NCI-H196: 107.4% of control
[6]; [13]
  POC (percent of control) NCI-H196: 130.5% of control
[7]
  activity at 100 µM: 101%
[7]; [12]
  POC (percent of control) MDA-MB: 100.7% of control
[7]; [13]
  POC (percent of control) MDA-MB: 121.5% of control
[8]
  activity at 100 µM: 93.3%
[8]; [12]
  POC (percent of control) PC3: 131.7% of control
[8]; [13]
  POC (percent of control) PC3: 110.9% of control
[9]
  activity at 100 µM: 112%
[9]; [12]
  POC (percent of control) BxPC3: 106.8% of control
[9]; [13]
  POC (percent of control) BxPC3: 114.8% of control
[10]
  activity at 100 µM: 108%
[10]; [12]
  POC (percent of control) MCF10A: 92.8% of control
[10]; [13]
  POC (percent of control) MCF10A: 120% of control
[11]
  activity at 100 µM: 87.9%
[11]; [12]
  POC (percent of control) HDF: 97.4% of control
[11]; [13]
  POC (percent of control) HDF: 113.6% of control

— US20230266302A1, “SYNTHESIS AND USE OF N-BENZYL SULFONAMIDES” (THE UNIVERSITY OF TULSA, priority 2020, published 2023)
